Assay results taken from patent US11957324B2, “Device and method for preparing and administering one-component fibrin sealant” (Ethicon, Inc., priority 2014, dated 2024).
One block for each compound: values may come before it.

Assays:
[1] = system: fibrin clot formation; settings: CaCl2 between about 8 mM and about 30 mM; 5-fold zymogen, 3.5% (w/v) fibrinogen, tissue factor and phospholipids
Description: In the following experiment, the concentration range of calcium ion (CaCl2 concentration) as an inducer to accelerate fibrin clot formation in the zymogen (PPSB concentrate) and fibrinogen comprising mixture (prepared from BAC2) described in Example 1 was explored. In this Example, the zymogen mixture was prepared at a concentration of 10-fold (10 IU FII/ml), as compared to plasma, and mixed in the same volumetric ratio with the same fibrinogen solution as above (final 5-fold concentrations of zymogen, compared to plasma, and 3.5% (w/v) fibrinogen). No EDTA was used. In this experiment, initiation of clotting was performed using a calcium-depleted PT (prothrombin time) reagent comprising tissue factor and phospholipids; a clotting initiator that is typically present in bleeding/injured surfaces and on the surface of activated platelets, respectively. By using both tissue factor and phospholipids, a bleeding surface is simulated. CaCl2 at increasing concentrations was supplemented to the mixture and the clotting time was measured using a Start4 clotting analyzer (Diagnostica Stago).

[2] = biological target: thrombin (Homo sapiens, UniProt P00734); settings: cited from earlier work
[3] = biological target: T1, fibrin (Homo sapiens, UniProt P02671+P02675+P02679); assay: Rate of fibrin clot formation at different GPRP concentrations, cessation of flow upon inversion of the tube; assay type: biochemical; settings: above molar ratio 340:1 GPRP:fibrin (40 mM GPRP at tested fibrinogen concentration)
T1 sequence (P02671 36-644 isoform P02671-2 limits assumed): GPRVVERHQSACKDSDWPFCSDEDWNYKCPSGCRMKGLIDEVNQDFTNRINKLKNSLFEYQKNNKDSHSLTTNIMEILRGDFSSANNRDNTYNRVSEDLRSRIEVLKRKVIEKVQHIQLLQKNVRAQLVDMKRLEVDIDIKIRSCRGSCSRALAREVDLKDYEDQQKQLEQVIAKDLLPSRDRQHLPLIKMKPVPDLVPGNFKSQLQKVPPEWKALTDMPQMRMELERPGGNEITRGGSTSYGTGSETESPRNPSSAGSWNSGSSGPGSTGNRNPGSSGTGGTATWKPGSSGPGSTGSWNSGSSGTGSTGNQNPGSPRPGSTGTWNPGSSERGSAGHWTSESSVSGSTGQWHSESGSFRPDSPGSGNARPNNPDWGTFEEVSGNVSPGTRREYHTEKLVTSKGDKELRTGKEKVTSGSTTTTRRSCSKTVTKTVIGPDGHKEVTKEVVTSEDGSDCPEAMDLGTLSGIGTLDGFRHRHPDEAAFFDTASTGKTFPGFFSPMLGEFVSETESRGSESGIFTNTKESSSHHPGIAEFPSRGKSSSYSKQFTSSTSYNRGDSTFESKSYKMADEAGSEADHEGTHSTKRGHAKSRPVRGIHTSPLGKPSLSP
T1 sequence (P02675 45-491 limits assumed): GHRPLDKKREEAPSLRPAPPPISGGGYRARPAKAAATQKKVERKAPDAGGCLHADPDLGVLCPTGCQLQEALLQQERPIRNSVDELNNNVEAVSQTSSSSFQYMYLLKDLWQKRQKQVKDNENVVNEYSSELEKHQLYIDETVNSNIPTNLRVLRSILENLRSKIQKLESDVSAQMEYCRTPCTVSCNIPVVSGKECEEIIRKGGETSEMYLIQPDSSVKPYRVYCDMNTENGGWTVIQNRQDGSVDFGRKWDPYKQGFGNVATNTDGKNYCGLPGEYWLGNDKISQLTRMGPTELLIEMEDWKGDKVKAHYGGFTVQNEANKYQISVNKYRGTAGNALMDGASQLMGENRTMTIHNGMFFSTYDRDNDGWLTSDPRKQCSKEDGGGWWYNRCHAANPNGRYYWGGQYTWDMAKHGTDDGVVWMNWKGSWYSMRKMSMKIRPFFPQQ
T1 sequence (P02679 27-437 isoform P02679-2 limits assumed): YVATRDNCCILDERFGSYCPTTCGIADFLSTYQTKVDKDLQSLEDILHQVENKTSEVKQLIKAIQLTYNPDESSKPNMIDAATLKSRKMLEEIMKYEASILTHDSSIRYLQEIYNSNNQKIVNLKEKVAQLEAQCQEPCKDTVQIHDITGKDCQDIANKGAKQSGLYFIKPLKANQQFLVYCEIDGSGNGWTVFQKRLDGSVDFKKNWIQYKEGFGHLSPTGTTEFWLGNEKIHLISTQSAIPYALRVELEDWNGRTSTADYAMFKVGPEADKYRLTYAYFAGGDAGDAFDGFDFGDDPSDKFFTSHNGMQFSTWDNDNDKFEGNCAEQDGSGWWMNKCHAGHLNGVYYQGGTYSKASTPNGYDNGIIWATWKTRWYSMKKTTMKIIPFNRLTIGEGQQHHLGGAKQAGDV

[4] = biological target: T1, fibrin; assay: as above; assay type: biochemical; settings: 3% fibrin, thrombin 100 IU/ml
Description: In the following experiment, the effect of adjusting the concentration of GPRP (SEQ ID NO: 1) inhibitor on fibrin clot formation rate was tested. GPRP (SEQ ID NO: 1) at different concentrations (0.1 mM, 0.2 mM, 0.5 mM, 1 mM, 1.5 mM, 2 mM, 3 mM, 4 mM, and 5 mM) was added to a fibrinogen containing solution (a fixed concentration of 3% w/v, prepared by diluting the BAC2 component of EVICEL® in 40 mM citrate buffer).
To generate fibrin monomers, dimers and/or oligomers, thrombin was added to the mixture; a 10% volume of the thrombin component of EVICEL® was added to yield a final concentration of 100 international units/ml (IU/ml). The rate of fibrin clot formation was measured by cessation of flow of the mixture upon inversion of the tube.

Compound: [Ca+2].[Cl-].[Cl-] [CaCl2, calcium chloride]
clotting time [1]: < 20 s

Compound: hirudin
binds thrombin (affinity) [2]: picoM range

time for which no polymerization was observed [3]: > 14 days | Time to clot ([4]; 0.1 mM GPRP): 5 s | Time to clot ([4]; 0.2 mM GPRP): 7 s | Time to clot ([4]; 0.5 mM GPRP): 11 s | Time to clot ([4]; 1 mM GPRP): 13 s | Time to clot ([4]; 1.5 mM GPRP): 22 s | Time to clot ([4]; 2 mM GPRP): 28 s | Time to clot ([4]; 3 mM GPRP): 150 s | Time to clot ([4]; 4 mM GPRP): 480 s | Time to clot ([4]; 5 mM GPRP): 900 s
Compound: Gly-Pro-Arg-Pro [GPRP]
